Assay results: patent US20080287398A1, “COLD MENTHOL RECEPTOR-1 ANTAGONISTS” (priority 2007, published 2008)
Like-named read-outs stand apart in the source and are kept apart here.

Tested on: Sprague-Dawley rats
Assay: CFA-induced paw radiant heat hypersensitivity
Format: in vivo, rat
Details: po, rat; for inhibition in vivo at 30 mg/kg: 30 mg/kg p.o., read-out: % Reversal
Procedure: Intraplantar injection of Complete Freund's Adjuvant (CFA) in rodents results in a long-lasting inflammatory reaction, characterized by a pronounced hypersensitivity to both thermal and mechanical stimuli. This hypersensitivity peaks between 24-72 hours following injection and can last for several weeks. […] This paradigm also may be conducted with a multiple dosing or a prophylactic dosing regime designed to alter the course of hyperalgesia development. This test predicts the analgesic, anti-allodynic and antihyperalgesic effect of numerous effective clinical agents, including NSAIDS such as acetaminophen, aspirin and ibuprofen, and opioids such as morphine.
Each rat was placed in a test chamber on a warm glass surface and allowed to acclimate for approximately 10 minutes. A radiant thermal stimulus (beam of light) was then focused through the glass onto the plantar surface of each hind paw in turn. The thermal stimulus was automatically shut off by a photoelectric relay when the paw was moved or when the cut-off time was reached (20 seconds for radiant heat at ˜5 Amps). An initial (baseline) response latency to the thermal stimulus was recorded for each animal prior to the injection of CFA. Twenty-four hours following intraplantar CFA injection, the response latency of the animal to the thermal stimulus was then re-evaluated and compared to the animal's baseline response time. […] Immediately following the post-CFA latency assessment, test compound or vehicle (usually Solutol, hydroxypropyl methylcellulose, hydroxypropyl beta-cyclodextrin or PEG-400) was administered i.p. or p.o. to rats. […] The percent reversal (% R) of hypersenstivitiy was calculated according to the following formula:
% Reversal=(Treatment Response-CFA Response)/(Baseline Response-CFA Response)×100.

CC(C)OP(=O)(OC(C)C)[C@@H](Cc1ccc(F)c(F)c1)c1sc2ccccc2c1Br [Cpd 234, (S)-[1-(3-Bromo-benzo[b]thiophen-2-yl)-2-(3,4-difluoro-phenyl)-ethyl]-phosphonic acid diisopropyl ester]
inhibition in vivo at 30 mg/kg (time 1 h): 75%
inhibition in vivo at 30 mg/kg (time 2 h (printed 2 h or 2)): 56%
ED50 (p.o., read-out: ED50): 6.6 mg/kg
